# From patent US20240216464A1, “IL1RA DERIVED PEPTIDES FOR TREATMENT OF DIABETIC NEPHROPATHY” (SERODUS APS, priority 2021, published 2024)
# Entries after “also recorded” stand apart in the source; their conditions may differ. Ends that are not written are not given here.
# What was measured:
# [1] = target: T1, IL-1R1 (Homo sapiens, UniProt P14778); conditions: cited from earlier work
# T1 sequence (P14778 18-569): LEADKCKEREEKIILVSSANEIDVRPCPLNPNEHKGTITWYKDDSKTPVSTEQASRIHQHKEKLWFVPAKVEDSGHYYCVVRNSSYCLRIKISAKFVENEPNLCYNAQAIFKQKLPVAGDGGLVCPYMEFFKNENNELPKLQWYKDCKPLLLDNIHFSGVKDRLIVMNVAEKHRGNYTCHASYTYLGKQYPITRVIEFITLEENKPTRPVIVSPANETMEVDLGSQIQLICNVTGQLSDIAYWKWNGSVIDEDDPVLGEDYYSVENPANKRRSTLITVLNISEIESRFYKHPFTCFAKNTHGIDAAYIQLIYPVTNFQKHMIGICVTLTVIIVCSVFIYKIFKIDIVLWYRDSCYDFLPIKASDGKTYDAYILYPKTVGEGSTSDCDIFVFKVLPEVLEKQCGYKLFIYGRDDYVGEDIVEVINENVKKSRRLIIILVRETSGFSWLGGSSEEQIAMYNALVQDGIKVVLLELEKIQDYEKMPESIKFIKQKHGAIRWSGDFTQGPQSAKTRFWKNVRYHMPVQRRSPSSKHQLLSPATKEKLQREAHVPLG
# [2] = tested on: macrophages; conditions: downstream of IL-1 receptor activation; cited from earlier work
# [3] = tested on: Renin AAV Uni-nephrectomized db/db (Renin AAV UNx) mice; assay: Renin AAV uni-nephrectomized db/db mouse model of diabetic nephropathy, 77 days treatment; assay type: in vivo
# Method: 56 female mice (BKS.Cg-Dock7m+/+ Lepradb/db BLKS, 5 weeks of age) were transferred to the Gubra Research animal unit. The animals were group housed until uni-nephrectomies, then single housed. Throughout the habituation and study period the animals were in a light-, temperature- and humidity-controlled room with free access to food and water. All animal experiments were conducted in accordance with Gubra bioethical guidelines, which are fully compliant to internationally accepted principles for the care and use of laboratory animals.
# Animals were terminated on day 77; blood was taken for later analysis, body weight was recorded, and spot urine was collected.
# SER140 was provided by Phlogo ApS, Copenhagen, Denmark (10 mg/ml miliQ water diluted to the different dose formulations). SER140 is a dendrimer composed of four monomeric peptides each with the sequence SGRKSSKMQA (SEQ ID NO:1), and coupled to a lysine backbone. Vehicle was miliQ:PBS 1:5.
# After one week of acclimatization the mice received an IV injection of Renin adenosin-associated virus (AAV). […]
# All blood samples were taken from the mice tail in heparinized tubes, plasma was separated and stored at minus 80 C until analysis. Non-fasting BG (blood glucose) was measured using BIOSEN c-line glucose meter (EKF-diagnostics, Germany), blood for HbA1c analysis was immediately suspended in Hemolyzing Reagent and stored until analysis using autoanalyzer Cobas C-111 with commercial kit (Roche Diagnostics, Germany), plasma urea using commercial kits (Roche Diagnostics).
# Urine samples were stored at minus 80 C until analysis. Urine for measurement of albumin and creatinine were centrifuged at 2000 g for 2 min prior to analysis Urine albumin was measure using a commercial ELISA kit (Bethyl Laboratories, Inc.), according to the manufacturer's instructions, and urine creatinine was measured using a commercial kit (Roche Diagnostics) on the Cobas c 501 autoanalyzer, according to the manufacturer's instructions. Urinary KIM-1 was measured using a commercial ELISA kit (R&D Systems), according to the manufacturer's instructions.
Substance,receptor binding of IL-1p [1],macrophages liberation / secretion of TNFα [2],"urinary albumin corrected for creatinine (ACR) ([3]; spot urine, day 77, 3, 10 and 20 mg/kg SER140 subcutaneously once daily vs vehicle, FIG. 1 (medians))","urinary KIM-1 corrected for creatinine (KIM-1/CR) ([3]; spot urine, day 77, 3, 10 and 20 mg/kg SER140 subcutaneously once daily vs vehicle, FIG. 2 (means))",HbA1c ([3]; vehicle vs SER140 treatment)
"SER140: dendrimer composed of four monomeric peptides each with the sequence SGRKSSKMQA (SEQ ID NO:1), coupled to a lysine backbone (also: tetrameric dendrimer: four copies coupled to a lysine backbone)",inhibit,reduce,decreased; also recorded: significantly reduced,decreased; also recorded: significantly reduced,no changes
"SGRKSSKMQA (Variant of fragment of IL1RA) [SEQ ID NO:1, 10-amino acid peptide derived from IL1RA]",,inhibit,,,
